Data published in US9066938B2, “GPBP-1 inhibition and its therapeutic use” (Fibrostatin S.L., priority 2012, dated 2015).

Key:
[1] = system: CDKN1A (p21) and DDIT3 (CHOP) genes; test: qPCR of CDKN1A (p21) and DDIT3 (CHOP) mRNA in A549 cells; assay type: cell-based, human; conditions: doxorubicin 1 μM, T12 50 μM, 24 h
Description: FIG. 3. T12 enhances doxorubicin-induced expression of CDKN1A (p21) and DDIT3 (CHOP) genes in A549 cells. Cells were treated with doxorubicin (1 μM) and/or T12 (50 μM) for 24 h. Total RNA was isolated, reverse-transcribed, and CDKN1A (p21) and DDIT3 (CHOP) mRNA levels assessed by qPCR using TaqMan™ commercial probes and primers. Results are expressed as relative quantity (RQ) respect to untreated cells. A representative assay is shown.
Total RNA from cell samples was extracted using Ilustra RNAspin™ Mini (Ge Healthcare) according to the manufacturer's instructions. One μg of total RNA from each sample was converted to cDNA (RT) using the High Capacity cDNA Reverse Transcription Kit (Applied Biosystems). For Real-Time PCR (qPCR), 1.5 μl of cDNA was mixed with TaqMan™ Gene Expression Master Mix and the specific TaqMan™ probes and primers for COL4A3BP/GPBP, DDIT3/CHOP, CDKN1A/p21, PROM1/CD133, NANOG, MMP10 and HPRT1, all from Applied Biosystems. Hypoxanthine-guanine phosphoribosyltransferase (HPRT1) primer was used as endogenous control. qPCR was performed on a StepOnePlus™ Real-Time PCR system (Applied Biosystems) according to manufacturer's recommendations. The relative levels of mRNAs were calculated with the ΔΔCt method using untreated samples as reference (the comparative Ct method).

[2] = system: PARP cleavage in A549 cells; test: Flow cytometry of cleaved PARP (caspase-3-mediated apoptosis) in A549 cells; assay type: cell-based, human; conditions: doxorubicin 1 μM, T12 50 μM, 36 h
Description: FIG. 5. T12 enhances doxorubicin-induced caspase 3-mediated apoptosis. A549 cells were incubated with doxorubicin (1 μM) and/or T12 (50 μM) for 36 h. Subsequently, cells were stained with a PE conjugated antibody specific for human PARP-cleaved fragments and further analyzed by flow cytometry. Data are expressed as fold respect to untreated control cells. Shown is a representative experiment.
Caspase-3 activation in A549 cells was evaluated by flow cytometry using a human anti-cleaved PARP antibody conjugated to PE (BD Biosciences). Briefly, after treatment, the cells were collected by centrifugation and suspended in Perm/Wash™ (BD Biosciences) buffer for 20 min, washed and then incubated for 30 min with the antibody. Subsequently, the cells were rinsed and further analyzed by flow cytometry (BD FacsVerse™ cytometer, BD Biosciences).

A549 cells = assay type: cell-based
Description: FIG. 2. […] Cells were seeded in 96-well plates and treated with the indicated compound combinations. The cellular viability (cell number) was measured with alamarBlue® and arbitrary units of fluorescence after 36 h of treatment (vertical axis).
FIG. 7. […] A549 cells were seeded on 96-well culture plates and after 4 h were treated with the indicated concentrations of doxorubicin in absence or presence of T12 (50 μM) and/or CFTR-inhibitor-172 (25 μM). Cells were cultured for additional 36 h and cell viability assessed as in FIG. 2.
A549 human lung adenocarcinoma cancer cells (CLS Cell Lines Service) were used as an ex vivo model for the assessment of anti-tumor activity of specific compounds. Unless otherwise indicated A549 cells were cultured in DMEM: Ham's F12 medium supplemented with 2 mM L-glutamine and 10% fetal bovine serum. A549 cells resistant to doxorubicin (A549-DR) were obtained treating cells with 1 μM for 4 weeks. A549 cells were transfected with a plasmid that expresses GPBP-1 and further selected with G418 (Invitrogen) to obtain a cell line (A549-GPBP) that constitutively expresses GPBP-1.
Cytotoxicity assays were performed with alamarBlue® reagent (Invitrogen) according to manufacturer's instructions. A549 cells were seeded on 96-well culture plates (7,500 cells/well) and allowed to settle during 4 h. Then, cells were cultured with individual peptidomimetics at concentrations ranging from 0 to 50 μM, in presence of doxorubicin at concentrations ranging from 0 to 10 μM for 36 h. JLSM cells were harvested by treatment with 0.25% trypsin (Lonza) and plated on collagen I coated 96-well black culture plate (Perkin Elmer) at a density of 10.000 cells per cm^2. After 4 h settling, cells were treated with different peptidomimetics (with or without doxorubicin) for 36 h. Subsequently alamarBlue® reagent was added and incubation maintained for 3 h. Fluorescence was measured using 560EX nm/590EM nm filter settings with a SpectraMax GeminiXPS (Molecular Devices). Blank wells containing media were used to determine background fluorescence.
The activity shown for each compound in Table 1 is the factor by which doxorubicin LC50 is reduced by the compound at a 50-μM concentration in A549 cell cultures. […] The symbols −, −/+, +, ++, +++, ++++ in the third column are used to show relative activities of compounds in a simplified way.

[3] = system: ovarian cancer cells (OVCAR-3); test: Response of OVCAR-3 ovarian cancer cells to T12; assay type: cell-based; conditions: cells that did not increase GPBP expression in response to doxorubicin

How did the “induction of CDKN1A (p21) and DDIT3 (CHOP) expression together with doxorubicin” value [1] turn out when COc1ccc(-c2ccc(-c3cccc(C)c3)c(C)c2)c(CCC(=O)O)c1 [T12, 3-[4″-methoxy-3,2′-dimethyl-(1,1′;4′,1″)terphenyl-2″-yl] propionic acid] was run?
The value was “synergistic”.

And the “doxorubicin-induced PARP cleavage” value [2]?
Its value is “enhanced”.

And the “A549 cell viability, compound without doxorubicin” value (A549 cells; 36 h, alamarBlue)?
Its value is “did not alter cell viability”.

And the “Activity as enhancer of doxorubicin-induced cell death, relative activity symbol” value (A549 cells; compound at 50 μM, A549 cell cultures)?
Its value is “+++”.

What about the “effect on doxorubicin LC50 for A549 cells” value (A549 cells; compound combined with doxorubicin) of the same compound?
The value was “reduced doxorubicin LC50 for A549 cells in a dose-dependent manner”.

What about the “responsiveness of OVCAR-3 cells to the compound” value [3] of the same compound?
Its value is “not responsive”.
